This note sets out measurements from patent US6436918B1, “Steroid sulfatase inhibitors and methods for making and using the same” (Duquesne University of the Holy Ghost, priority 1997, dated 2002).

Read-outs that look alike come from different tables or passages of the source.

The target of this assay is T1, recombinant human estrone sulfatase (Homo sapiens, UniProt P08842).
T1 construct: made in house; host or cells: Chinese Hamster Ovary (CHO) cells
T1 sequence (P08842 22-583): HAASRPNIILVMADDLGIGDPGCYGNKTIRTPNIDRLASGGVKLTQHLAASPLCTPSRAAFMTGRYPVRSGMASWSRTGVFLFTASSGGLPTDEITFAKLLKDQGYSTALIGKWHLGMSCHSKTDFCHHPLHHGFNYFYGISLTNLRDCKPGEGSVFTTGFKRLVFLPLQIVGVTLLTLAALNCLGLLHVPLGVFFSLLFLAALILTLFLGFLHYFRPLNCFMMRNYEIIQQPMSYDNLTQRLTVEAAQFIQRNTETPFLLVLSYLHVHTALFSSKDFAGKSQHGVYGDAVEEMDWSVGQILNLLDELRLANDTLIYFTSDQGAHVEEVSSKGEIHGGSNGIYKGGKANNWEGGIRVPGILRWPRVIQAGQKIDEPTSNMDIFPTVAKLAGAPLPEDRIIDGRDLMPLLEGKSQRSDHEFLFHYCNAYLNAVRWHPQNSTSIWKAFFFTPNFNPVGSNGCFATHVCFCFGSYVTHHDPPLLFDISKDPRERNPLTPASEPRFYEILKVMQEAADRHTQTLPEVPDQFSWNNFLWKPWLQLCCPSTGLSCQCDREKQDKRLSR
The assay is described as follows: in vitro conversion assay: inhibition of conversion of 3H-estrone sulfate to 3H-estrone by estrone sulfatase. Type of assay: biochemical. How it is done: The compounds prepared according to the methods of the above Examples were tested for biological activity in inhibiting sulfatase activity using an in vitro conversion assay procedure. As will be appreciated by those skilled in the art, this assay is based on inhibition of the conversion of ^3H-estrone sulfate to ^3H-estrone by the enzyme estrone sulfatase. The final volume of the enzyme assay was 0.15 ml. [6.7-^3H] estrone sulfate (final concentration 3.3 nmole/L; 300,000 dpm/tube); an inhibitor at various concentrations in DMSO and recombinant human estrone sulfatase (33 ng/tube) in phosphate buffered saline, containing 0.25 M sucrose and 0.04 M nicotinamide, pH 7, were added to a 1.5 ml microtube. Recombinant human estrone sulfatase was partially purified from Chinese Hamster Ovary (CHO) cells in which human estrone sulfatase cDNA was transfected. The assay began by the addition of the substrate estrone sulfate. After 60 minutes of incubation at 37° C., 0.5 ml of toluene were added to quench the assay. Control samples with no inhibitor were incubated simultaneously. Blank samples were obtained by incubating without estrone sulfatase. The quenched samples were vortexed for 30 seconds and centrifuged (9,000 rpm for 5 minutes). Two hundred and fifty microliters of toluene were obtained from each quenched sample to determine the amount of product formation. Product formation for samples containing an inhibitor was compared to that of control samples (without inhibitors) run simultaneously. This was reported as percent inhibition of control sample which equals
100× Product formation for sample containing inhibitor Product formation for sample with no inhibitor (control)
Each concentration was tested in duplicate in three separate experiments.

Setting [1] is: Table 3 (Example 8; compounds 7, 29d, 29h, 29m), same in vitro conversion assay, read-out: IC50.

On to `CC(C)NC(=O)[C@H]1CC[C@H]2[C@@H]3CCc4cc(OS(N)(=O)=O)ccc4[C@H]3CC[C@]12C` [Compound 29h, 17β-(N-Isopropylcarbamnoyl)estra-1,3,5(10)-trien-3-yl sulfamate], for which the IC50 under setting [1] turned out to be 17 nM. For the compound `CCCN(C)C(=O)[C@H]1CC[C@H]2[C@@H]3CCc4cc(OS(N)(=O)=O)ccc4[C@H]3CC[C@]12C` [Compound 29m, 17β-(N-methyl-N-Propylcarbamoyl)estra-1,3,5 (10)-trien-3-yl sulfamate], the IC50 was determined as 5.5 nM. In the case of `CC(C)CNC(=O)[C@H]1CC[C@H]2[C@@H]3CCc4cc(OS(N)(=O)=O)ccc4[C@H]3CC[C@]12C` [Compound 29d, 17β-(N-Isobutylcarbamoyl)estra-1,3,5(10)-trien-3-yl sulfamate], the half-inhibitory concentration (IC50) worked out at 6.5 nM. Turning to `CCCNC(=O)[C@H]1CC[C@H]2[C@@H]3CCc4cc(OS(N)(=O)=O)ccc4[C@H]3CC[C@]12C` [Compound 7, 17β-(N-Propylcarbamoyl)estra-1,3,5(10)-trien-3-yl sulfamate], the IC50 under setting [1] turned out to be 19 nM.
